Where “and” joins values, the source holds several entries; their conditions need not be identical. Equal values may be shown once. Read-outs that look alike come from different tables or passages of the source.
Legend:
HEK293 cells [1] = test: GFP expression in HEK293 cells infected with yf2AAV9-CMV-AcGFP in the presence of sucrose; settings: Exp 1, yf2AAV9-CMV-AcGFP 2×10^9 vg/well, 3 days
Description: (§1) To the culture cells of (b) above, 6×10^7 to 5×10^8 vg/well of AAV3B-CMV-AcGFP expressing GFP described in Item (a) above was added, or 2×10^9 vg/well of yf2AAV9-CMV-AcGFP was added, and then the cells were cultured for 3 to 6 days.
(§2) The fluorescence intensity of GFP was measured using a plate reader (BioTek Japan) and comparison thereof was made. Further, the images of typical view fields were taken using the fluorescence microscope (Olympus IX83).
On a 96 well Optical bottom plate (ThermoFisher), 5×10^4 cells/well of HEK293 cells were seeded, and the next day, either 2×10^8 vg/well of AAV3B-CMV-AcGFP or 2×10^9 vg/well of yf2AAV9-CMV-AcGFP was added thereto. […] To a sucrose (−) control, the same amount of the medium as that of the sucrose solution was added. After cell cultivation for 3 days under 5% CO2 at 37° C. in an incubator, the fluorescence intensity of GFP was measured using the plate reader (BioTek Japan) and comparison thereof was made (FIG. 1A). Further, the images of typical view fields were taken using the fluorescence microscope (Olympus IX83) (FIG. 1B).

HepG2 cells [2] = test: GFP expression in HepG2 cells infected with AAV3B-CMV-AcGFP in the presence of sucrose; settings: Exp 3, AAV3B-CMV-AcGFP 5×10^8 vg/well, 3 days
Description: (§3) Three types of AAV vectors (AAV3B, yf2AAV9 and AAVGT4) were used.
as §1, §2
(§4) On a 96 well Optical bottom plate, 5×10^4 cells/well of HepG2 cells were seeded, and 5×10^8 vg/well of AAVGT4-CMV-AcGFP or 5×10^8 vg/well of AAV3B-CMV-AcGFP was added to the medium on the next day. […] To a sucrose (−) control, the medium in the same amount as that of the sucrose solution was added. After cell cultivation for 3 days under 5% CO2 at 37° C. in an incubator, the fluorescence intensity of GFP was measured using the plate reader and comparison thereof was made.

HepG2 cells [3] = test: GFP expression in HepG2 cells infected with AAVGT4-CMV-AcGFP in the presence of sucrose; settings: Exp 3, AAVGT4-CMV-AcGFP 5×10^8 vg/well, 3 days
Description: as §3, §1, §2, §4

HEK293 cells [4] = system: HEK293 cells
Description: As the first procedure, 4 methods of the addition were carried out, including adding sucrose immediately (5 minutes or less) after the administration of the AAV vector, and the administration of the AAV vector immediately (5 minutes or less) after, 10 minutes after or 1 hour after adding sucrose to cells.
In the same manner as the above-described procedure, the GFP expression level was measured 3 days later.
In the same manner as the above-described procedures, the GFP expression level was measured 3 days later.
AAV3B-CMV-AcGFP was mixed in advance with sucrose at each of various concentrations, and the mixture was allowed to stand at room temperature for 1 hour followed by administration to cells. […] In order to prevent cell damage due to a buffer at the time of dilution of sucrose, medium replacement was carried out using a sucrose solution having the same concentration that was prepared by the medium 3 hours after the administration.

[5] = Exp 2, AAV3B 6×10^7 vg/well, iso-osmotic additives: sucrose 125.0, glucose 132.3, mannitol 132.3, NaCl 71.5 mM, 3 days
[6] = Exp 6, sucrose 187 mM, data not shown

OC[C@H]1O[C@@](CO)(O[C@H]2O[C@H](CO)[C@@H](O)[C@H](O)[C@H]2O)[C@@H](O)[C@@H]1O [Sucrose, sucrose]
GFP fluorescence intensity (HEK293 cells [1]; sucrose 125 mM final): 321.4 | (+)/(−) GFP expression increase (HEK293 cells [1]; sucrose 125 mM vs no sucrose): 19.6 times | (+)/(−) GFP expression increase (HepG2 cells [2]; sucrose 125 mM vs none): 16.1 times | GFP fluorescence intensity (HepG2 cells [2]; sucrose 125 mM): 970.8 | (+)/(−) GFP expression increase (HepG2 cells [3]; sucrose 125 mM vs none): 19.1 times | GFP fluorescence intensity (HepG2 cells [3]; sucrose 125 mM): 579.8 | GFP fluorescence intensity (HEK293 cells [4]; Exp 1, AAV3B-CMV-AcGFP 2×10^8 vg/well, sucrose 125 mM final, 3 days): 9257.45 | (+)/(−) GFP expression increase (HEK293 cells [4]; Exp 1, AAV3B-CMV-AcGFP 2×10^8 vg/well, sucrose 125 mM vs no sucrose, 3 days): 15.4 times | GFP intensity (HEK293 cells [4]; [5]): 1844.8 | Relativeness (vs No Additive) (HEK293 cells [4]; [5]): 11 times and 11.2 times | Fluorescence Intensity (HEK293 cells [4]; Exp 4A, AAV3B 1×10^8 vg/well, AAV 10 min after sucrose 125 mM, 3 days): 2580.3 | Fluorescence Intensity (HEK293 cells [4]; Exp 4A, AAV3B 1×10^8 vg/well, AAV 1 hr after sucrose 125 mM, 3 days): 3047 | Fluorescence Intensity (HEK293 cells [4]; Exp 4A, AAV3B 1×10^8 vg/well, AAV immediately after sucrose 125 mM, 3 days): 2356.2 | Fluorescence Intensity (HEK293 cells [4]; Exp 4A, AAV3B 1×10^8 vg/well, sucrose 125 mM added immediately after AAV, 3 days): 2500.8 | Relativeness (vs Sucrose(−)) (HEK293 cells [4]; Exp 4A, AAV 10 min after sucrose 125 mM, 3 days): 10.5 | Relativeness (vs Sucrose(−)) (HEK293 cells [4]; Exp 4A, AAV 1 hr after sucrose 125 mM, 3 days): 12.4 | Relativeness (vs Sucrose(−)) (HEK293 cells [4]; Exp 4A, AAV immediately after sucrose 125 mM, 3 days): 9.6 | Relativeness (vs Sucrose(−)) (HEK293 cells [4]; Exp 4A, sucrose 125 mM added immediately after AAV, 3 days): 10.2 | Increase of expression (HEK293 cells [4]; Exp 4A, sucrose 125 mM, any of the adding methods, 3 days): about 10 times | Fluorescence Intensity (HEK293 cells [4]; Exp 4B, AAV3B 1×10^8 vg/well premixed with sucrose (125 mM final), administered 1 hr after mixing, 3 days): 3049.8 | Fluorescence Intensity (HEK293 cells [4]; Exp 4B, AAV3B 1×10^8 vg/well premixed with sucrose (125 mM final), administered immediately after mixing, 3 days): 3002.5 | Relativeness (vs (−) => (−)) (HEK293 cells [4]; Exp 4C, (+) => (+): sucrose from immediately after AAV, 3 days): 4.9 times | Relativeness (vs (−) => (−)) (HEK293 cells [4]; Exp 4C, (−) => (+): sucrose added 3 hours later, 3 days): 2.8 times | Fluorescence Intensity (HEK293 cells [4]; Exp 4C, AAV3B 1×10^8 vg/well, (+) => (+): sucrose 125 mM from immediately after AAV, 3 days): 534.5 | Fluorescence Intensity (HEK293 cells [4]; Exp 4C, AAV3B 1×10^8 vg/well, (−) => (+): sucrose 125 mM only from medium replacement 3 h after AAV, 3 days): 309.8 | Optimum concentration for expression enhancement (HEK293 cells [4]; Exp 6, after 3 days): 150 mM | Fluorescence Intensity (HEK293 cells [4]; Exp 6, sucrose 80 mM, AAV3B 1×10^8 vg/well premixed 1 h, 3 days): 1026.0 | Relativeness (vs 0 mM) (HEK293 cells [4]; Exp 6, sucrose 90 mM, 3 days): 6.4 | Fluorescence Intensity (HEK293 cells [4]; Exp 6, sucrose 90 mM, AAV3B 1×10^8 vg/well premixed 1 h, 3 days): 1230.5 | Relativeness (vs 0 mM) (HEK293 cells [4]; Exp 6, sucrose 100 mM, 3 days): 8.1 | Fluorescence Intensity (HEK293 cells [4]; Exp 6, sucrose 100 mM, AAV3B 1×10^8 vg/well premixed 1 h, 3 days): 1568.3 | Relativeness (vs 0 mM) (HEK293 cells [4]; Exp 6, sucrose 105 mM, 3 days): 9.2 | Fluorescence Intensity (HEK293 cells [4]; Exp 6, sucrose 105 mM, AAV3B 1×10^8 vg/well premixed 1 h, 3 days): 1769.3 | Relativeness (vs 0 mM) (HEK293 cells [4]; Exp 6, sucrose 110 mM, 3 days): 10.1 | Fluorescence Intensity (HEK293 cells [4]; Exp 6, sucrose 110 mM, AAV3B 1×10^8 vg/well premixed 1 h, 3 days): 1952.3 | Relativeness (vs 0 mM) (HEK293 cells [4]; Exp 6, sucrose 115 mM, 3 days): 12.2 | Fluorescence Intensity (HEK293 cells [4]; Exp 6, sucrose 115 mM, AAV3B 1×10^8 vg/well premixed 1 h, 3 days): 2351.3 | Relativeness (vs 0 mM) (HEK293 cells [4]; Exp 6, sucrose 120 mM, 3 days): 15.3 | Fluorescence Intensity (HEK293 cells [4]; Exp 6, sucrose 120 mM, AAV3B 1×10^8 vg/well premixed 1 h, 3 days): 2941.0 | Relativeness (vs 0 mM) (HEK293 cells [4]; Exp 6, sucrose 125 mM, 3 days): 18.8 | Fluorescence Intensity (HEK293 cells [4]; Exp 6, sucrose 125 mM, AAV3B 1×10^8 vg/well premixed 1 h, 3 days): 3626.8 | Relativeness (vs 0 mM) (HEK293 cells [4]; Exp 6, sucrose 130 mM, 3 days): 21.1 | Fluorescence Intensity (HEK293 cells [4]; Exp 6, sucrose 130 mM, AAV3B 1×10^8 vg/well premixed 1 h, 3 days): 4069.0 | Relativeness (vs 0 mM) (HEK293 cells [4]; Exp 6, sucrose 135 mM, 3 days): 25.0 | Fluorescence Intensity (HEK293 cells [4]; Exp 6, sucrose 135 mM, AAV3B 1×10^8 vg/well premixed 1 h, 3 days): 4813.3 | Relativeness (vs 0 mM) (HEK293 cells [4]; Exp 6, sucrose 140 mM, 3 days): 29.2 | Fluorescence Intensity (HEK293 cells [4]; Exp 6, sucrose 140 mM, AAV3B 1×10^8 vg/well premixed 1 h, 3 days): 5620.5 | Fluorescence Intensity (HEK293 cells [4]; Exp 6, sucrose 145 mM, AAV3B 1×10^8 vg/well premixed 1 h, 3 days): 5763.8 | Fluorescence Intensity (HEK293 cells [4]; Exp 6, sucrose 150 mM, AAV3B 1×10^8 vg/well premixed 1 h, 3 days): 6411.8 | Fluorescence Intensity (HEK293 cells [4]; Exp 6, sucrose 160 mM, AAV3B 1×10^8 vg/well premixed 1 h, 3 days): 5922.5 | Cell damage (HEK293 cells [4]; [6]): damaged and detached | Decrease of GFP intensity (HEK293 cells [4]; [6]): about 20% | Fluorescence Intensity (HEK293 cells [4]; Exp 8, disaccharide 100 mM in medium, AAV3B 1×10^8 vg/well, Day 3): 1312.7 | Relativeness (vs No Sugar) (HEK293 cells [4]; Exp 8, disaccharide 100 mM, Day 3): 2.2 | Fluorescence Intensity (HEK293 cells [4]; Exp 8, disaccharide 125 mM in medium, AAV3B 1×10^8 vg/well, Day 3): 1760.5 | Relativeness (vs No Sugar) (HEK293 cells [4]; Exp 8, disaccharide 125 mM, Day 3): 2.9 | Fluorescence Intensity (HEK293 cells [4]; Exp 8, disaccharide 150 mM in medium, AAV3B 1×10^8 vg/well, Day 3): 2979.5 | Fluorescence Intensity (HEK293 cells [4]; Exp 8, disaccharide 150 mM, AAV3B 1×10^8 vg/well, Day 1): 434.5 | Fluorescence Intensity (HEK293 cells [4]; Exp 8, disaccharide 150 mM, AAV3B 1×10^8 vg/well, Day 2): 1657.3 | Fluorescence Intensity (HEK293 cells [4]; Exp 8, disaccharide 150 mM, AAV3B 1×10^8 vg/well, Day 6): 7908.0 | Relativeness (vs No Sugar) (HEK293 cells [4]; Exp 8, disaccharide 150 mM, Day 3): 4.9

From patent US12188040B2, “Method for enhancing gene expression using AAV vector” (priority 2018, dated 2025)
